# Assay results reported in PMC12593396 (2025).
# Test system: 3WJ (PAGE) (DNA, junction) CGGAACGGCACTCG/CGAGTGCAGCGTGG/CCACGCTCGTTCCG
# Assay: PAGE junction assembly
# Conditions: 10 mM NaCl, 1x TB
Compound,binding,binding (0.1 to 5 equivalents)
C(=Nc1ccc(Cc2ccc(N=Cc3ccccn3)cc2)cc1)c1ccccn1.C(=Nc1ccc(Cc2ccc(N=Cc3ccccn3)cc2)cc1)c1ccccn1.C(=Nc1ccc(Cc2ccc(N=Cc3ccccn3)cc2)cc1)c1ccccn1.[Ni+2].[Ni+2],yes,–
[Pt+2].[Pt+2].c1cncc(Oc2ccc(Oc3cccnc3)cc2)c1.c1cncc(Oc2ccc(Oc3cccnc3)cc2)c1.c1cncc(Oc2ccc(Oc3cccnc3)cc2)c1.c1cncc(Oc2ccc(Oc3cccnc3)cc2)c1,–,yes
